From US7192581B2, “Lactobacillus reuteri useful as probiotics” (Probionic Corp., priority 2001, dated 2007)
≈ marks a conversion by molar mass, not a printed value. Read-outs that look alike come from different tables or passages of the source.

System: #Probio-16
Experiment: Antibiotic susceptibility of #Probio-16 (paper disc)
Assay type: cell-based, Lactobacillus reuteri
Method: Antibiotic susceptibility of #Probio-16 was assayed according to Microbiology procedures handbook vol. 1 (Henry D. Isenberg, ASM) and Korean Pat. Publication No. 91-4366. In this regard, 13 antibiotics, that is, cephalexcin, erythromycin, flumequinine, furazolidine, gentamycin, procaine, penicillin G, norflaxacine, spectinomycin, tetracycline, tiamuline, neomycin, chloramphenicol, and kanamycin, were dissolved in appropriate solvents. By concentrations, the prepared antibiotic solutions were inoculated in an amount of 30 μl onto a paper disc which was then allowed to stand for 1 hour at 4° C. Inhibitory circles emerging after 24 hours of anaerobic incubation were measured.
Assay of #Probio-16 for antibiotic susceptibility was conduced according to Microbiology Procedures Handbook vol. 1 (Henry D. Isenberg, ASM) and Korean Pat. Publication No. 91-4366, with regard to 13 antibiotics, including cephalexcin, erythromycin, flumequinine, furazolidine, gentamycin, procaine, penicillin G, norflaxacine, spectinomycin, tetracycline, tiamuline, neomycin, chloramphenicol, and kanamycin. By concentrations, antibiotic solutions were inoculated in an amount of 30 μl onto a paper disc which was then allowed to stand for 1 hour at 4° C. Inhibitory circles emerging after 24 hours of anaerobic incubation were measured.

[1] = against #Probio-16, 24 hours anaerobic incubation (Table 3)
[2] = against Lactobacillus reuteri Probio-16
[3] = Limosilactobacillus reuteri, against #Probio-16, 24 hours anaerobic incubation (Table 3), read-out: MIC
[4] = Limosilactobacillus reuteri, against Lactobacillus reuteri Probio-16, read-out: minimal inhibitory concentration (MIC)
[5] = against Lactobacillus reuteri Probio-16 (unit not given)

Row | Compound | MIC [1] | minimal inhibitory concentration (MIC) [2] | MIC [3] | MIC [4] | minimal inhibitory concentration (MIC) [5]
1 | CC1=C(C(=O)O)N2C(=O)[C@@H](NC(=O)[C@H](N)c3ccccc3)[C@H]2SC1 [Cephalexcin] | 90 µg/mL (≈ 259 µM) | 90 µg/mL (≈ 259 µM) |  |  | 
2 | O=C(N[C@H](CO)[C@H](O)c1ccc([N+](=O)[O-])cc1)C(Cl)Cl [Chloramphenicol] |  |  | 200 µg/mL (≈ 619 µM) | 200 µg/mL (≈ 619 µM) | 
3 | CC[C@H]1OC(=O)[C@H](C)[C@@H](O[C@H]2C[C@@](C)(OC)[C@@H](O)[C@H](C)O2)[C@H](C)[C@@H](O[C@@H]2O[C@H](C)C[C@H](N(C)C)[C@H]2O)[C@](C)(O)C[C@@H](C)C(=O)[C@H](C)[C@@H](O)[C@]1(C)O [Erythromycin] |  |  | 4 µg/mL (≈ 5.45 µM) | 4 µg/mL (≈ 5.45 µM) | 
4 | CC1CCc2cc(F)cc3c(=O)c(C(=O)O)cn1c23 (centres unmarked) [Flumequinine] | 4000 µg/mL (≈ 15300 µM) | 4,000 μg/ml |  |  | 
5 | O=C1OCCN1/N=C/c1ccc([N+](=O)[O-])o1 [Furazolidine] | 90 µg/mL (≈ 400 µM) | 90 µg/mL (≈ 400 µM) |  |  | 
6 | NC[C@H]1O[C@H](O[C@H]2[C@H](O)[C@@H](O[C@H]3O[C@H](CO)[C@@H](O)[C@H](N)[C@H]3O)[C@H](N)C[C@@H]2N)[C@H](O)[C@@H](O)[C@@H]1O [Kanamycine] |  |  | 4000 µg/mL (≈ 8260 µM) | 4000 µg/mL (≈ 8260 µM) | 
7 | NC[C@@H]1O[C@H](O[C@H]2[C@@H](O)[C@H](O[C@@H]3[C@@H](O)[C@H](N)C[C@H](N)[C@H]3O[C@H]3O[C@H](CN)[C@@H](O)[C@H](O)[C@H]3N)O[C@@H]2CO)[C@H](N)[C@@H](O)[C@@H]1O [Neomycine] | 100 µg/mL (≈ 163 µM) | 100 µg/mL (≈ 163 µM) |  |  | 
8 | CCn1cc(C(=O)O)c(=O)c2cc(F)c(N3CCNCC3)cc21 [Norflaxacine] | 1000 µg/mL (≈ 3130 µM) |  |  |  | 100
9 | CN[C@@H]1[C@H](O)[C@H](NC)[C@H]2O[C@@]3(O)C(=O)C[C@@H](C)O[C@H]3O[C@@H]2[C@H]1O [Spectinomycine] |  |  | 2500 µg/mL (≈ 7520 µM) | 2500 µg/mL (≈ 7520 µM) | 
10 | CN(C)[C@@H]1C(O)=C(C(N)=O)C(=O)[C@@]2(O)C(O)=C3C(=O)c4c(O)cccc4[C@@](C)(O)[C@H]3C[C@@H]12 [Tetracycline] |  |  | 1500 µg/mL (≈ 3380 µM) | 1500 µg/mL (≈ 3380 µM) | 
11 | C=C[C@]1(C)C[C@@H](OC(=O)CSCCN(CC)CC)[C@]2(C)[C@H](C)CC[C@]3(CCC(=O)[C@H]32)[C@@H](C)[C@@H]1O [Tiamuline] |  |  | 300 µg/mL (≈ 608 µM) | 300 µg/mL (≈ 608 µM) | 
12 | CC1(C)S[C@@H]2[C@H](NC(=O)Cc3ccccc3)C(=O)N2[C@H]1C(=O)O.CCN(CC)CCOC(=O)c1ccc(N)cc1 [procaine Penicilline G] | 4 µg/mL |  |  |  | 4
13 | Gentamycine | 100 µg/mL | 100 µg/mL |  |  | 
